{"source": "paper PMC9557946", "about": "“Intermittent MEK inhibition for the treatment of metastatic uveal melanoma” (Frontiers in Oncology, 2022)", "key": {"[1]": {"system": "metastatic uveal melanoma", "test": "Phase Ib trial of intermittent selumetinib: clinical efficacy (RECIST v1.1, PFS, OS)", "format": "in vivo, human", "from_the_text": "This was a multi-center, open-label, phase Ib study conducted at Columbia University Irving Medical Center (New York, NY), University of Texas MD Anderson Cancer Center (Houston, TX), and Memorial Sloan Kettering Cancer Center (New York, NY). The primary objective of this study was to determine the maximum tolerated dose (MTD) of selumetinib administered using an intermittent dosing schedule in patients with metastatic UM. […] Exploratory objectives included pharmacodynamic (PD) assessment of target inhibition of the MEK pathway.\nDescriptive statistics were used to report baseline characteristics of the study population. The observed rate and estimated rate of DLT were reported for each dose level along with the 90% probability interval. The number and percentage of patients with adverse events were summarized taking the highest grade and reported by grade for AEs that were at least possibly related to treatment. AEs with at prevalence of least 10% were reported separately. The overall response rate (ORR) was defined as a confirmed complete response (CR) or partial response (PR) according to RECIST 1.1 criteria ([18]) and reported by dose level. Disease control rate (DCR) was defined as the percentage of patients with a confirmed CR, PR or stable disease. PFS was measured from date of enrollment until the date of progression or death, whichever occurred first. OS was defined as the time from the date of registration to the date of death by any cause.\nImaging was obtained at baseline, at 8 weeks after start of study treatment, and then every 8 weeks thereafter. Imaging of the chest, abdomen, and pelvis was required at each time point, with contrast enhanced MRI of the liver performed whenever possible. Response was assessed using RECIST v.1.1 criteria by investigator assessment. Criteria for removal from study included radiographic or clinical disease progression, or unacceptable toxicity."}, "[2]": {"system": "metastatic uveal melanoma", "settings": "ref [10], cited from earlier work"}, "[3]": {"settings": "All Levels, investigator assessed RECIST v1.1"}, "[4]": {"settings": "Level 1 (100 mg BID), investigator assessed RECIST v1.1"}, "[5]": {"settings": "Level 2 (125 mg BID), investigator assessed RECIST v1.1"}, "[6]": {"settings": "Level 3 (150 mg BID), investigator assessed RECIST v1.1"}, "[7]": {"settings": "Level 4 (175 mg BID), investigator assessed RECIST v1.1"}}, "note": "Where two headings read alike, the source gives them in different places."}
{"compound": "Cn1cnc2c(F)c(Nc3ccc(Br)cc3Cl)c(C(=O)NOCCO)cc21", "note": "[selumetinib]", "values": [{"measurement": "median PFS", "setting": "[1]; 125mg twice daily cohort", "value": 1.7, "unit": "months"}, {"measurement": "Complete Response (CR)", "setting": "[1]; [3]", "value": 0}, {"measurement": "Partial Response (PR)", "setting": "[1]; [3]", "value": 0}, {"measurement": "Median duration of Stable Disease", "setting": "[1]; Level 1 (100 mg BID)", "value": 7.1, "unit": "months"}, {"measurement": "Complete Response (CR)", "setting": "[1]; [4]", "value": 0}, {"measurement": "Overall Response Rate (ORR)", "setting": "[1]; [4]", "value": 0}, {"measurement": "Partial Response (PR)", "setting": "[1]; [4]", "value": 0}, {"measurement": "Median Time to Progression (range)", "setting": "[1]; Level 1 (100 mg BID), range 1.2-10.8", "value": "3.4 months (1.2-10.8)"}, {"measurement": "Median duration of Stable Disease", "setting": "[1]; Level 2 (125 mg BID)", "value": 4.1, "unit": "months"}, {"measurement": "Complete Response (CR)", "setting": "[1]; [5]", "value": 0}, {"measurement": "Overall Response Rate (ORR)", "setting": "[1]; [5]", "value": 0}, {"measurement": "Partial Response (PR)", "setting": "[1]; [5]", "value": 0}, {"measurement": "Median Time to Progression (range)", "setting": "[1]; Level 2 (125 mg BID), range 0.9-5.5", "value": "1.7 months (0.9-5.5)"}, {"measurement": "Median duration of Stable Disease", "setting": "[1]; Level 3 (150 mg BID)", "value": 4.9, "unit": "months"}, {"measurement": "Complete Response (CR)", "setting": "[1]; [6]", "value": 0}, {"measurement": "Overall Response Rate (ORR)", "setting": "[1]; [6]", "value": 0}, {"measurement": "Partial Response (PR)", "setting": "[1]; [6]", "value": 0}, {"measurement": "Median Time to Progression (range)", "setting": "[1]; Level 3 (150 mg BID), range 0.9-6.2", "value": "3.7 months (0.9-6.2)"}, {"measurement": "Complete Response (CR)", "setting": "[1]; [7]", "value": 0}, {"measurement": "Overall Response Rate (ORR)", "setting": "[1]; [7]", "value": 0}, {"measurement": "Partial Response (PR)", "setting": "[1]; [7]", "value": 0}, {"measurement": "Progressive Disease (PD), patients/total (%)", "setting": "[1]; [7]", "value": 0}, {"measurement": "ORR", "setting": "[1]; all 29 patients, RECIST v1.1", "value": 0, "unit": "%"}, {"measurement": "best response of stable disease, percent of patients", "setting": "[1]; at 8 weeks from treatment initiation, n=11 of 29", "value": 38, "unit": "%"}, {"measurement": "median progression-free response by cohort", "setting": "[1]; range across dose cohorts", "value": "1.7-3.7 months"}, {"measurement": "median PFS", "setting": "[1]; total population (29 patients), 95% CI 1.7, 4.5", "value": 1.8, "unit": "months"}, {"measurement": "median OS", "setting": "[1]; total population (29 patients), 95% CI 5.3, 11.5", "value": 7.1, "unit": "months"}, {"measurement": "median PFS", "setting": "[2]; SELPAC, selumetinib 75 mg BID", "value": 3.4, "unit": "months"}, {"measurement": "ORR", "setting": "[2]; SelPac, 77 patients", "value": 4, "unit": "%"}, {"measurement": "median OS", "setting": "[2]; SelPac, 77 patients", "value": 10, "unit": "months"}]}
